For assay [1], the target named is T1, mushroom tyrosinase.
T1 construct: gene PPO1
The experiment in a line: dopachrome formation, absorbance […] nm. Type of assay: biochemical. To be noted: L-tyrosine substrate (0.85 mM solution); phosphate pH 6.8; 15 min preincubation at 25 °C.

Assay [2] deals with T2, Collagenase from Clostridium histolyticum (ChC).
T2 construct: gene colG
The experiment in a line: FALGPA hydrolysis, microplate absorbance. The class given is biochemical, Hathewaya histolytica. Conditions: 50 mM tricine pH 7.5, 400 mM NaCl, 10 mM CaCl2; 15 min preincubation; FALGPA substrate.

In assay [3] the target is T3, Porcine pancreatic elastase (Sus scrofa, UniProt P00772).
T3 construct: gene CELA1; native enzyme from pancreas (commercial)
T3 sequence (P00772 27-266): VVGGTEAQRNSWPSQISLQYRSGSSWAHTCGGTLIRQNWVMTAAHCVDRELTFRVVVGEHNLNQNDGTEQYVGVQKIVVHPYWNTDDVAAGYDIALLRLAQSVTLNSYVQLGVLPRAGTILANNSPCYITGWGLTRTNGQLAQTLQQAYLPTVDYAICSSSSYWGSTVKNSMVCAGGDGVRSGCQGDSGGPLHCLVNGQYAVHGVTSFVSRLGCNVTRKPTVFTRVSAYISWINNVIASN
The experiment in a line: N-succinyl-Ala-Ala-Ala-p-nitroanilide hydrolysis, absorbance […] nm. Type of assay: biochemical.

From publication PMC8066341, “Chemical Profiles, Anticancer, and Anti-Aging Activities of Essential Oils of Pluchea dioscoridis (L.) DC. and Erigeron bonariensis L” (Plants, 2021) come the findings set out here.

The structures appear in SMILES notation. Values after ≈ are worked out from the molar mass of the structure shown.

The IC50 is the concentration needed to halve the response being measured. On to `O=C(O[C@@H]1Cc2c(O)cc(O)cc2O[C@@H]1c1cc(O)c(O)c(O)c1)c1cc(O)c(O)c(O)c1` [epigallocatechin gallate], for which the IC50 in assay [1] was 14.37 µg/mL (≈ 31.3 µM); in assay [2] it was 1.56 µg/mL (≈ 3.4 µM); in assay [3] it was 22.4 µM.
